In patent publication EP4745137A1 (Gluetacs Therapeutics (Shanghai) Co., Ltd., priority 2023, dated 2025):

Tests used:
Type in all cases: cell-based
Details in all cases: 24 hours of compound treatment
IKZF1 = target: T1, IKZF1 (Homo sapiens, UniProt Q13422+Q96SW2); experiment: Western-blot assay of substrate protein degradation in hPBMCs, IKZF1
T1 construct: endogenous in cells; host or cells: hPBMCs (Milecell Biotechnologies)

WEE1 = target: T2, WEE1 (Homo sapiens, UniProt P30291+Q96SW2); experiment: Western-blot assay of substrate protein degradation in hPBMCs, WEE1
T2 construct: endogenous in cells; host or cells: hPBMCs (Milecell Biotechnologies)

IKZF3 = target: T3, IKZF3 (Homo sapiens, UniProt Q96SW2+Q9UKT9); experiment: Western-blot assay of substrate protein degradation in hPBMCs, IKZF3
T3 construct: endogenous in cells; host or cells: hPBMCs (Milecell Biotechnologies)

CK1α = target: T4, CK1α (Homo sapiens, UniProt P48729+Q96SW2); experiment: Western-blot assay of substrate protein degradation in hPBMCs, CK1α
T4 construct: endogenous in cells; host or cells: hPBMCs (Milecell Biotechnologies)

GSPT1 = target: T5, GSPT1 (Homo sapiens, UniProt P15170+Q96SW2); experiment: Western-blot assay of substrate protein degradation in hPBMCs, GSPT1
T5 construct: endogenous in cells; host or cells: hPBMCs (Milecell Biotechnologies)

IKZF2 = target: T6, IKZF2 (Homo sapiens, UniProt Q96SW2+Q9UKS7); experiment: Western-blot assay of substrate protein degradation in hPBMCs, IKZF2
T6 construct: endogenous in cells; host or cells: hPBMCs (Milecell Biotechnologies)

[1] = 50 nM and 500 nM tested (concentration behind the class not stated)
[2] = compounds tested at 50 nM and 500 nM (concentration of the table not stated)

T3 sequence (Q9UKT9 whole entry): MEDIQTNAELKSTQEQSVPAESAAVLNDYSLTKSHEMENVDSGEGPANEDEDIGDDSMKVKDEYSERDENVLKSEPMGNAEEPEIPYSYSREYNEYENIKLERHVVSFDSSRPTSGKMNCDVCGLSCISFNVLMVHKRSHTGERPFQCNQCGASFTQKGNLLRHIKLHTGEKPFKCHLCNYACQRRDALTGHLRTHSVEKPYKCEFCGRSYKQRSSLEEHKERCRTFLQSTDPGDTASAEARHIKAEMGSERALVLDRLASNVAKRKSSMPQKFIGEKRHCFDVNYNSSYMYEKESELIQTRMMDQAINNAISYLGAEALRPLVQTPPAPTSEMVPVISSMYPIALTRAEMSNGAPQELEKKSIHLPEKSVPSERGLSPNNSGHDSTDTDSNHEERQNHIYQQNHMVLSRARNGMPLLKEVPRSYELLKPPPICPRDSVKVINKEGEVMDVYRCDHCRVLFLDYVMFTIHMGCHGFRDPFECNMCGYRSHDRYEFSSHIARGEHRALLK
T3 sequence (Q96SW2 whole entry): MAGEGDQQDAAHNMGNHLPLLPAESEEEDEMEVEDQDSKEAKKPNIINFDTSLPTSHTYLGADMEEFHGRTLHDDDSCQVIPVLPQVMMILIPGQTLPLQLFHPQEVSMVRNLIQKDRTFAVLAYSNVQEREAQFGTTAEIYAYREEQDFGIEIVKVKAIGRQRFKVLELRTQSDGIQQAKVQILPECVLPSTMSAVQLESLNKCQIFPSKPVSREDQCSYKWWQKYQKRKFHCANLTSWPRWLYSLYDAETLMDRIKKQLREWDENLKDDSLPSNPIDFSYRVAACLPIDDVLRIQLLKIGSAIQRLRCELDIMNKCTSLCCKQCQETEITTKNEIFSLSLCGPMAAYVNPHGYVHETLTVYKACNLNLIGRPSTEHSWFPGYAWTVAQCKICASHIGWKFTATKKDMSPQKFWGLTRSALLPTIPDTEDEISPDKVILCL
T3 sequence (Q16531 whole entry partner): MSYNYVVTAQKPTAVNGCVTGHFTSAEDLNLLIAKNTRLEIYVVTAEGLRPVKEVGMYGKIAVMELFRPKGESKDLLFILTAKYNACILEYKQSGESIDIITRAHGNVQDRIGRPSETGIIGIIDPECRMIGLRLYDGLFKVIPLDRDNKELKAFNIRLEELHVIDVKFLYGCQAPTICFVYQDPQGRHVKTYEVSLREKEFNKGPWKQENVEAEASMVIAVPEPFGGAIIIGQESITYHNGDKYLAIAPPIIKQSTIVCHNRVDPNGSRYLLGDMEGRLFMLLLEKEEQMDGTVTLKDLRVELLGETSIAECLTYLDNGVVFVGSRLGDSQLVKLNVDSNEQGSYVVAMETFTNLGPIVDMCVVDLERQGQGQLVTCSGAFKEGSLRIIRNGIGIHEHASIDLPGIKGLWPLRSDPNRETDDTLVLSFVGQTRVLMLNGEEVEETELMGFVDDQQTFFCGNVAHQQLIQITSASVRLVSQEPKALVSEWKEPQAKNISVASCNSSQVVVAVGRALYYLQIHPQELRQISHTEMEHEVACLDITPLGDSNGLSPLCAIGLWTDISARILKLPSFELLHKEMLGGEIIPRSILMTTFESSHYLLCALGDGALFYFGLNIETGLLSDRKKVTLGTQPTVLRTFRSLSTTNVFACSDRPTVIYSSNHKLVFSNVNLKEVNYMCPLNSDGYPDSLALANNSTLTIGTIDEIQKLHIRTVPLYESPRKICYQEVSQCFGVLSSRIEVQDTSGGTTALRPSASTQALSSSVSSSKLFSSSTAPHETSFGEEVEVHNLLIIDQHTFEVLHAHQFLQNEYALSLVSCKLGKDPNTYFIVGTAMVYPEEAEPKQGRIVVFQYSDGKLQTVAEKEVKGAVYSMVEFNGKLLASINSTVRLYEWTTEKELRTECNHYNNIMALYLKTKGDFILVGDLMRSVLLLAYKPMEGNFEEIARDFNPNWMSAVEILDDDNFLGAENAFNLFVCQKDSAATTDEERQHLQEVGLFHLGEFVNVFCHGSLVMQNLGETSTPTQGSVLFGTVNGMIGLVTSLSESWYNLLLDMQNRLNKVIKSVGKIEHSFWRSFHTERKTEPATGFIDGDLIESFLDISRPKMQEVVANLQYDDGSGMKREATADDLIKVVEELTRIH
T2 sequence (P30291 whole entry): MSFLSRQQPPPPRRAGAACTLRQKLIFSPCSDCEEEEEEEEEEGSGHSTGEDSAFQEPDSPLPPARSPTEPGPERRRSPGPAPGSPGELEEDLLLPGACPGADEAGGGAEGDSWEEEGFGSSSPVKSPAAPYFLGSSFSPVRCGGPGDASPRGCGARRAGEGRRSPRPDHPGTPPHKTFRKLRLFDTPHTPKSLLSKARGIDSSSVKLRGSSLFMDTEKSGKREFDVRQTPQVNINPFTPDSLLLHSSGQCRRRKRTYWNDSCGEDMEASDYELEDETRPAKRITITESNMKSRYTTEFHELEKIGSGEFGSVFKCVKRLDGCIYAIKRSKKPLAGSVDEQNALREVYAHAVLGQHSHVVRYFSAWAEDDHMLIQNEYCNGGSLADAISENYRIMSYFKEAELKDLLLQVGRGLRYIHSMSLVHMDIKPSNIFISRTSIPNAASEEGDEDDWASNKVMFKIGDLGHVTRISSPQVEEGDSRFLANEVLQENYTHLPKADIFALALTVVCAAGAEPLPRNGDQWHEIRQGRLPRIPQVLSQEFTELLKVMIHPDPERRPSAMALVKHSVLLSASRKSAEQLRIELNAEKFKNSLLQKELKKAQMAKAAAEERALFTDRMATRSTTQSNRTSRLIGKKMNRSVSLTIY
T2 sequence (Q96SW2 whole entry): as the sequence (Q96SW2 whole entry) above
T2 sequence (Q16531 whole entry partner): as the sequence (Q16531 whole entry partner) above
T1 sequence (Q13422 whole entry): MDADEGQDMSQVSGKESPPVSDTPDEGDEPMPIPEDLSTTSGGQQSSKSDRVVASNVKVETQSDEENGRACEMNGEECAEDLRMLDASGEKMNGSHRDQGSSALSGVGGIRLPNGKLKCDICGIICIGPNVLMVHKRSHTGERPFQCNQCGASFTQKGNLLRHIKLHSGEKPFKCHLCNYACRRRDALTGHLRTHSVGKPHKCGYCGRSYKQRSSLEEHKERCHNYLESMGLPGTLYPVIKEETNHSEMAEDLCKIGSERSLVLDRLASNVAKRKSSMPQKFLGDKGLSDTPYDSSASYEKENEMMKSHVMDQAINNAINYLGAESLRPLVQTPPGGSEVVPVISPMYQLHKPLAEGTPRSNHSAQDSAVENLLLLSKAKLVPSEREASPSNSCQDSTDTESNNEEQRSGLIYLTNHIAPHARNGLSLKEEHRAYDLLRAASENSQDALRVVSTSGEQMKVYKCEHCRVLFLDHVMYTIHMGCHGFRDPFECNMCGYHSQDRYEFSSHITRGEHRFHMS
T1 sequence (Q96SW2 whole entry): as the sequence (Q96SW2 whole entry) above
T1 sequence (Q16531 whole entry partner): as the sequence (Q16531 whole entry partner) above
T4 sequence (P48729 whole entry): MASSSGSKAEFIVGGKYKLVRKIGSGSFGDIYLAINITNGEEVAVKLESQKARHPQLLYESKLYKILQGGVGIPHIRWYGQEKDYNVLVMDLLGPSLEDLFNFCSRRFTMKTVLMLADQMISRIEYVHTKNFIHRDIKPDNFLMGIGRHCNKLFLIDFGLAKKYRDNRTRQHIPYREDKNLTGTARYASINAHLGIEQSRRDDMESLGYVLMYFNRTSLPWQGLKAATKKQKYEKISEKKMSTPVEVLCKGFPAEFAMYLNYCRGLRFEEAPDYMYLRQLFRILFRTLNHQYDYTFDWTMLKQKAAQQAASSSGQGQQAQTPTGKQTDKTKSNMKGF
T4 sequence (Q96SW2 whole entry): as the sequence (Q96SW2 whole entry) above
T4 sequence (Q16531 whole entry partner): as the sequence (Q16531 whole entry partner) above
T5 sequence (P15170 whole entry): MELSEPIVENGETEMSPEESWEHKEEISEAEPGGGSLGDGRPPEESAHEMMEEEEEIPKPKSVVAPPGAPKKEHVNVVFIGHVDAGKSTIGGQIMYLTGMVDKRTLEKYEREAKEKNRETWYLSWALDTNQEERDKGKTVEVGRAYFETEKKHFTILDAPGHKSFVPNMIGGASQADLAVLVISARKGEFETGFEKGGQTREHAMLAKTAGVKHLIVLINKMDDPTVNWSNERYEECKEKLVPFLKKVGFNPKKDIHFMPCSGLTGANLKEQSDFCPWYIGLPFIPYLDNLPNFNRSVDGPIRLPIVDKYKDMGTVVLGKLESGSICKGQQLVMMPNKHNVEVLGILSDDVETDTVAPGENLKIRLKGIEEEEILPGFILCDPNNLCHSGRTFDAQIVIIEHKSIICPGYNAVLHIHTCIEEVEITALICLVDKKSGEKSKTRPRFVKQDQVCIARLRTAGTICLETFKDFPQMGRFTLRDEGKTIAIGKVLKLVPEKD
T5 sequence (Q96SW2 whole entry): as the sequence (Q96SW2 whole entry) above
T5 sequence (Q16531 whole entry partner): as the sequence (Q16531 whole entry partner) above

Row | Structure (SMILES) | IKZF 1 substrate protein remaining % (IKZF1; [1]) | Weel substrate protein remaining % (WEE1; [1]) | IKZF3 substrate protein remaining % (IKZF3; [1]) | CK1a substrate protein remaining % (CK1α; [1]) | GSPT1 substrate protein remaining % (GSPT1; [1]) | IKZF2 substrate protein remaining % (IKZF2; [1]) | IKZF 1 substrate protein remaining % (IKZF1; [2]) | Weel substrate protein remaining % (WEE1; [2]) | IKZF3 substrate protein remaining % (IKZF3; [2]) | CK1a substrate protein remaining % (CK1α; [2]) | GSPT1 substrate protein remaining % (GSPT1; [2]) | IKZF2 substrate protein remaining % (IKZF2; [2])
1 | O=C1CCC(N2C(=O)c3ccc(CN4CCN(c5cc(F)cc(F)c5)CC4)cc3C2=O)C(=O)N1 (stereo not drawn) [GT-06365, 5-((4-(3,5-difluorophenyl)piperazin-1-yl)methyl)-2-(2,6-dioxopiperidin-3-yl)isoindoline-1,3-dione] | B (80%< substrate protein remaining %≤ 100%) | B (80%< substrate protein remaining %≤ 100%) | B (80%< substrate protein remaining %≤ 100%) | B (80%< substrate protein remaining %≤ 100%) | A (0% ≤ substrate protein remaining % ≤ 80%) | B (80%< substrate protein remaining %≤ 100%) | – | – | – | – | – | –
2 | O=C1CCC(N2C(=O)c3ccc(CN4CCC(C5CCOc6cc(F)ccc65)CC4)cc3C2=O)C(=O)N1 (stereo not drawn) [GT-06237, 2-(2,6-dioxopiperidin-3-yl)-5-((4-(7-fluorochroman-4-yl)piperidin-1-yl)methyl)isoindoline-1,3-dione] | – | – | – | – | – | – | B (80%< substrate protein remaining %≤ 100%) | B (80%< substrate protein remaining %≤ 100%) | B (80%< substrate protein remaining %≤ 100%) | B (80%< substrate protein remaining %≤ 100%) | A (0% ≤ substrate protein remaining % ≤ 80%) | B (80%< substrate protein remaining %≤ 100%)
3 | O=C1CCC(N2Cc3c(CN4CCn5c(nnc5C(F)(F)F)C4)cccc3C2=O)C(=O)N1 (stereo not drawn) [GT-04920, 3-(1-oxo-4-((3-(trifluoromethyl)-5,6-dihydro-[1,2,4]triazolo[4,3-a]pyrazin-7(8H)-yl)methyl)isoindolin-2-yl)piperidine-2,6-dione] | – | – | – | – | – | – | A (0% ≤ substrate protein remaining % ≤ 80%) | A (0% ≤ substrate protein remaining % ≤ 80%) | A (0% ≤ substrate protein remaining % ≤ 80%) | B (80%< substrate protein remaining %≤ 100%) | A (0% ≤ substrate protein remaining % ≤ 80%) | A (0% ≤ substrate protein remaining % ≤ 80%)
4 | O=C1CCC(N2Cc3c(CN4CCC(c5noc6cc(F)ccc56)CC4)cccc3C2=O)C(=O)N1 (stereo not drawn) [GT-04764, 3-(4-((4-(6-fluorobenzo[d]isoxazol-3-yl)piperidin-1-yl)methyl)-1-oxoisoindolin-2-yl)piperidine-2,6-dione] | – | – | – | – | – | – | B (80%< substrate protein remaining %≤ 100%) | A (0% ≤ substrate protein remaining % ≤ 80%) | B (80%< substrate protein remaining %≤ 100%) | A (0% ≤ substrate protein remaining % ≤ 80%) | A (0% ≤ substrate protein remaining % ≤ 80%) | B (80%< substrate protein remaining %≤ 100%)
5 | O=C1CCC(N2C(=O)c3cccc(CN4CCC(c5noc6cc(F)ccc56)CC4)c3C2=O)C(=O)N1 (stereo not drawn) [GT-04770, 2-(2,6-dioxopiperidin-3-yl)-4-((4-(6-fluorobenzo[d]isoxazol-3-yl)piperidin-1-yl)methyl)isoindoline-1,3-dione] | – | – | – | – | – | – | B (80%< substrate protein remaining %≤ 100%) | B (80%< substrate protein remaining %≤ 100%) | B (80%< substrate protein remaining %≤ 100%) | B (80%< substrate protein remaining %≤ 100%) | A (0% ≤ substrate protein remaining % ≤ 80%) | B (80%< substrate protein remaining %≤ 100%)
6 | O=C1CCC(N2C(=O)c3ccc(CN4CCN(c5ccc(Cl)c(Cl)c5)CC4)cc3C2=O)C(=O)N1 (stereo not drawn) [GT-06298, 5-((4-(3,4-dichlorophenyl)piperazin-1-yl)methyl)-2-(2,6-dioxopiperidin-3-yl)isoindoline-1,3-dione] | B (80%< substrate protein remaining %≤ 100%) | B (80%< substrate protein remaining %≤ 100%) | B (80%< substrate protein remaining %≤ 100%) | B (80%< substrate protein remaining %≤ 100%) | A (0% ≤ substrate protein remaining % ≤ 80%) | B (80%< substrate protein remaining %≤ 100%) | – | – | – | – | – | –
7 | O=C1CCC(N2C(=O)c3ccc(CN4CCC(c5ccccc5Cl)CC4)cc3C2=O)C(=O)N1 (stereo not drawn) [GT-06371, 5-((4-(2-chlorophenyl)piperidin-1-yl)methyl)-2-(2,6-dioxopiperidin-3-yl)isoindoline-1,3-dione] | A (0% ≤ substrate protein remaining % ≤ 80%) | B (80%< substrate protein remaining %≤ 100%) | B (80%< substrate protein remaining %≤ 100%) | B (80%< substrate protein remaining %≤ 100%) | A (0% ≤ substrate protein remaining % ≤ 80%) | B (80%< substrate protein remaining %≤ 100%) | – | – | – | – | – | –
8 | O=C1CCC(N2C(=O)c3ccc(CN4CC=C(c5cccc6c(F)cccc56)CC4)cc3C2=O)C(=O)N1 (stereo not drawn) [GT-06264, 2-(2,6-dioxopiperidin-3-yl)-5-((4-(5-fluoronaphthalen-1-yl)-3,6-dihydropyridin-1(2H)-yl)methyl)isoindoline-1,3-dione] | – | – | – | – | – | – | A (0% ≤ substrate protein remaining % ≤ 80%) | A (0% ≤ substrate protein remaining % ≤ 80%) | A (0% ≤ substrate protein remaining % ≤ 80%) | A (0% ≤ substrate protein remaining % ≤ 80%) | A (0% ≤ substrate protein remaining % ≤ 80%) | A (0% ≤ substrate protein remaining % ≤ 80%)
9 | Cc1sc2ncnc(N3CCCN(Cc4ccc5c(c4)C(=O)N(C4CCC(=O)NC4=O)C5=O)CC3)c2c1C (stereo not drawn) [GT-06308, 5-((4-(5,6-dimethylthieno[2,3-d]pyrimidin-4-yl)-1,4-diazepan-1-yl)methyl)-2-(2,6-dioxopiperidin-3-yl)isoindoline-1,3-dione] | A (0% ≤ substrate protein remaining % ≤ 80%) | B (80%< substrate protein remaining %≤ 100%) | B (80%< substrate protein remaining %≤ 100%) | B (80%< substrate protein remaining %≤ 100%) | B (80%< substrate protein remaining %≤ 100%) | A (0% ≤ substrate protein remaining % ≤ 80%) | – | – | – | – | – | –
10 | O=C1CCC(N2C(=O)c3ccc(CN4CCC(c5noc6cc(F)ccc56)CC4)cc3C2=O)C(=O)N1 (stereo not drawn) [GT-04771, 2-(2,6-dioxopiperidin-3-yl)-5-((4-(6-fluorobenzo[d]isoxazol-3-yl)piperidin-1-yl)methyl)isoindoline-1,3-dione] | – | – | – | – | – | – | B (80%< substrate protein remaining %≤ 100%) | A (0% ≤ substrate protein remaining % ≤ 80%) | B (80%< substrate protein remaining %≤ 100%) | A (0% ≤ substrate protein remaining % ≤ 80%) | A (0% ≤ substrate protein remaining % ≤ 80%) | B (80%< substrate protein remaining %≤ 100%)
11 | Cc1ccsc1N1CCN(Cc2ccc3c(c2)C(=O)N(C2CCC(=O)NC2=O)C3=O)CC1 (stereo not drawn) [GT-06214, 2-(2,6-dioxopiperidin-3-yl)-5-((4-(3-methylthiophen-2-yl)piperazin-1-yl)methyl)isoindoline-1,3-dione] | B (80%< substrate protein remaining %≤ 100%) | B (80%< substrate protein remaining %≤ 100%) | B (80%< substrate protein remaining %≤ 100%) | B (80%< substrate protein remaining %≤ 100%) | A (0% ≤ substrate protein remaining % ≤ 80%) | A (0% ≤ substrate protein remaining % ≤ 80%) | – | – | – | – | – | –
12 | Cc1ccc(N2CCN(Cc3ccc4c(c3)C(=O)N(C3CCC(=O)NC3=O)C4=O)CC2)cc1 (stereo not drawn) [GT-06277, 2-(2,6-dioxopiperidin-3-yl)-5-((4-(p-tolyl)piperazin-1-yl)methyl)isoindoline-1,3-dione] | B (80%< substrate protein remaining %≤ 100%) | B (80%< substrate protein remaining %≤ 100%) | B (80%< substrate protein remaining %≤ 100%) | B (80%< substrate protein remaining %≤ 100%) | A (0% ≤ substrate protein remaining % ≤ 80%) | B (80%< substrate protein remaining %≤ 100%) | – | – | – | – | – | –
